The target in assay [1] is T1, PDK1 (Homo sapiens, UniProt O15530).
T1 construct: His6 (N)
T1 sequence (O15530 51-556 limits assumed): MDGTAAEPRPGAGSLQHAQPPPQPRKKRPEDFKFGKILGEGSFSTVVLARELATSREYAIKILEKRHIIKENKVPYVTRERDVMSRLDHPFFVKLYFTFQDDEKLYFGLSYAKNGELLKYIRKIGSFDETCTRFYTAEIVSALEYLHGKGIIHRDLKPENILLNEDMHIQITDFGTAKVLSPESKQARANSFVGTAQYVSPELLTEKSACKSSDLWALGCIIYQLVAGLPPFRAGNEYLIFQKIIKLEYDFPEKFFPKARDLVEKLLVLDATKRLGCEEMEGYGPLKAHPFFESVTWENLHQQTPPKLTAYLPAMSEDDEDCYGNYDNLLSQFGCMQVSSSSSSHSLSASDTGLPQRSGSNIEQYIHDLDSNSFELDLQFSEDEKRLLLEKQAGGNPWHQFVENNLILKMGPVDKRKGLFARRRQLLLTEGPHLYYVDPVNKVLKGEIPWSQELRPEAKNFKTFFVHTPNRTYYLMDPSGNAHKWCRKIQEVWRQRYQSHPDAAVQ
Briefly: Test for the inhibition of PDK1 (flashplate, 33P-ATP). The following applies: His6-PDK1 (1-50) 3.4 nM, 4 μM ATP, 30° C., 60 min; read-out: IC50 [PDK1] biochemical. Here is the method:
The experimental batches are carried out in a flashplate system with 384 wells/microtitration plate.
In each case, the PDK1 sample His6-PDK1 (1-50) (3.4 nM), the PDK1 substrate biotin-bA-bA-[…] (400 nM), 4 μM ATP (with 0.2μ Ci of ^33P-ATP/well) and the test substance in 50 μl of conventional experimental solution per well are incubated at 30° C. for 60 min. The test substances are employed in corresponding concentrations (if desired in a dilution series). The control is carried out without test substance. The reaction is stopped using standard methods and washed. The activity of the kinase is measured via the incorporated radioactivity in top count. In order to determine the non-specific kinase reaction (blank value), the experimental batches are carried out in the presence of 100 nM staurosporin.
The radioactivity (decompositions per minute) of the blank value (no use of test substance in the presence of staurosporin) is subtracted from all other radioactivity values. The controls (kinase activity without test substance) are set equal to 100 percent and all other radioactivity values (after subtracting the blank value) are expressed set in relation thereto (for example in % of the control).
IC50 values (50% inhibition) are determined with the aid of statistics programmes, such as, for example, RS1.

Assay [2] addresses T2, PDK1 (Homo sapiens, UniProt O15530).
T2 construct: endogenous in cells; host or cells: PC3 cells
T2 sequence (O15530 1-556): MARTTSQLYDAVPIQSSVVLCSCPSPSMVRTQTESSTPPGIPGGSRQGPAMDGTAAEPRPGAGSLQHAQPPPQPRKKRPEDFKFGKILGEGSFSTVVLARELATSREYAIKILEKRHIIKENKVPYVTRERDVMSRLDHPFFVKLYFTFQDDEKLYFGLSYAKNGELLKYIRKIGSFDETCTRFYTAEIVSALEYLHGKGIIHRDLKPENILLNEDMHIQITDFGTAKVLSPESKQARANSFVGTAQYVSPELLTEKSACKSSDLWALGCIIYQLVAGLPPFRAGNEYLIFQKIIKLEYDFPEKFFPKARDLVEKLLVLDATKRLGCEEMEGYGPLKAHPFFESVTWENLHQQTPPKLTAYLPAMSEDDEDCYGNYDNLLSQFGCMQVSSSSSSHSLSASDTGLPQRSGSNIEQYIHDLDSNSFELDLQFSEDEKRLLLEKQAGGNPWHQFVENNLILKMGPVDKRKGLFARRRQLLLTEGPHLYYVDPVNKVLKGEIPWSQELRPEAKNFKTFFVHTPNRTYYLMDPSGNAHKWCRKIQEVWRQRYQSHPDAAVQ
Briefly: Cellular testing of PDK1 kinase inhibitors in PC3 cells (Luminex, phospho-T308-PKB). The class given is cell-based. The following applies: 30 min, serum-free. Here is the method:
Method for the Cellular Testing of PDK1 Kinase Inhibitors in PC3 Cells.
The cellular assay for the determination of the PDK1 kinase activity is carried out as a Luminex assay in the 96-well format. PC3 cells are sown at 20,000 cells per well in 100 μl of medium (45% of […]/45% of Ham's F12/10% of FCS) and incubated on the following day for 30 min with a serial dilution of the test substance (7 concentrations) under serum-free conditions. The cells are subsequently lysed using 90 μl of lysis buffer (20 mM tris/HCl pH 8.0, 150 mM NaCl, 1% of NP40, 10% of glycerol, 1% of phosphatase inhibitor I, 1% of phosphatase inhibitor II, 0.1% of protease inhibitor cocktail III, 0.01% of benzonase) per well, and the lysates are separated off from insoluble cell constituents by means of centrifugation through a 96-well filter plate (0.65 μm). The lysates are incubated overnight at 4° C. with shaking with Luminex beads to which an anti-total PKB antibody is coupled. The detection is carried out on the following day by addition of a phospho-T308-PKB antibody and a species-specific […] secondary antibody. The detection of phospho T308-PKB is carried out by measurement in a Luminex100 instrument by determination of 100 events per cavity in a measurement time of 60 sec. As pharmacological blank, the signals obtained from cells which have been treated with 10 μM staurosporin are subtracted from all other batches. The control value used for maximum phosphorylation of PKB on T308 are the signals from cells which have only been treated with the solvent (0.3% of DMSO). The values of the batches treated with test substance are calculated therefrom as percentage of control, and IC50 values are determined by means of RS 1.

In general, IC50 refers to the concentration that inhibits the measured activity by half. In the case of `Cn1cc(-c2cnc3[nH]cc(-c4cc([C@](C)(O)c5cccc(F)c5)on4)c3c2)cn1` (single isomer, unassigned) [A63], the values for the IC50 in assay [1] and in assay [2] were 0.5 to 1000 nM and 1000 to 10000 nM, respectively.
The matching figures for `Cn1cc(-c2cnc3[nH]cc(-c4nnc([C@@H](O)c5ccccc5Cl)o4)c3c2)cn1` (single isomer, unassigned) [A130]: 0.5 to 1000 nM and 0.5 to 1000 nM.
Turning to `Cn1cc(-c2cnc3[nH]cc(-c4cc(C(C)(O)c5ccccc5)on4)c3c2)cn1` (stereo not drawn) [A1, 1-{3-[5-(1-methyl-1H-pyrazol-4-yl)-1H-pyrrolo[2,3-b]pyridin-3-yl]isoxazol-5-yl}-1-phenylethanol], the IC50 in assay [1] and in assay [2] was 0.5 to 1000 nM throughout.
`Cn1cc(-c2cnc3[nH]cc(-c4csc(Cc5ccccc5F)n4)c3c2)cn1` [A4]: the IC50 in assay [1] and in assay [2] was 1000 to 10000 nM throughout.
Consider `Cn1cc(-c2cnc3[nH]cc(-c4cc(C(C)(O)c5ccccc5F)on4)c3c2)cn1` (stereo not drawn) [A6], for which the IC50 in assay [1] and in assay [2] was 0.5 to 1000 nM in each case.
As to `Cn1cc(-c2cnc3[nH]cc(-c4csc(Cc5cccc(F)c5F)n4)c3c2)cn1` [A9], the half-maximal inhibitory concentration (IC50) in assay [1] and in assay [2] was 1000 to 10000 nM in each case.
In the case of `CCC(O)(c1cccc(F)c1)c1cc(-c2c[nH]c3ncc(-c4cnn(C)c4)cc23)no1` (stereo not drawn) [A11], the IC50 in assay [1] and in assay [2] was 0.5 to 1000 nM throughout.
As for `CC(O)(c1cc(-c2c[nH]c3ncc(-c4cnn(CC(=O)N5CCCCC5)c4)cc23)no1)c1ccccc1F` (stereo not drawn) [A12], the 50% inhibitory concentration (IC50) in assay [1] and in assay [2] was 0.5 to 1000 nM throughout.
For the molecule `Cn1cc(-c2cnc3[nH]cc(-c4n[nH]c(Cc5cccc(F)c5)n4)c3c2)cn1` [A14, 3-[5-(3-fluorobenzyl)-1H-1,2,4-triazol-3-yl]-5-(1-methyl-1H-pyrazol-4-yl)-1H-pyrrolo[2,3-b]pyridine], the concentration for half-maximal inhibition (IC50) lay in the range of 0.5 to 1000 nM in assay [1] and 1000 to 10000 nM in assay [2].
The matching figures for `Cn1cc(-c2cnc3[nH]cc(-c4n[nH]c(Cc5ccccc5F)n4)c3c2)cn1` [A15]: 0.5 to 1000 nM and 1000 to 10000 nM.
On the same counts, the results for `Cn1cc(-c2cnc3[nH]cc(-c4n[nH]c(Cc5cccc(F)c5F)n4)c3c2)cn1` [A16] are 0.5 to 1000 nM and 0.5 to 1000 nM.
For the molecule `Cn1cc(-c2cnc3[nH]cc(-c4n[nH]c(Cc5ccccc5)n4)c3c2)cn1` [A17], the half-maximal inhibitory concentration (IC50) in assay [1] lay in the range of 0.5 to 1000 nM; in assay [2] it was 1000 to 10000 nM.
On the same counts, the results for `Cn1cc(-c2cnc3[nH]cc(-c4cc(C(C)(O)c5ccccc5F)[nH]n4)c3c2)cn1` (stereo not drawn) [A18] are 0.5 to 1000 nM and 1000 to 10000 nM.
On the same counts, the results for `Cn1cc(-c2cnc3[nH]cc(-c4nnc(Cc5cccc(F)c5)o4)c3c2)cn1` [A19, 3-[5-(3-fluorobenzyl)-1,3,4-oxadiazol-2-yl]-5-(1-methyl-1H-pyrazol-4-yl)-1H-pyrrolo[2,3-b]pyridine] are 0.5 to 1000 nM and 1000 to 10000 nM.
On to `Cn1cc(-c2cnc3[nH]cc(-c4nnc(Cc5cccc(F)c5F)o4)c3c2)cn1` [A20], for which the IC50 in assay [1] fell in the range of 0.5 to 1000 nM; in assay [2], 1000 to 10000 nM.
`Cn1cc(-c2cnc3[nH]cc(-c4nnc(Cc5ccccc5)o4)c3c2)cn1` [A21]: the IC50 in assay [1] was 0.5 to 1000 nM; in assay [2], 1000 to 10000 nM.
On the same counts, the results for `Cn1cc(-c2cnc3[nH]cc(-c4nnc(Cc5ccccc5F)o4)c3c2)cn1` [A22] are 0.5 to 1000 nM and 0.5 to 1000 nM.
On the same counts, the results for `Cn1cc(-c2cnc3[nH]cc(-c4noc(C(O)c5ccccc5)n4)c3c2)cn1` (stereo not drawn) [A23] are 0.5 to 1000 nM and 1000 to 10000 nM.
Consider `CC(O)(c1cc(-c2c[nH]c3ncc(-c4cnn(CCO)c4)cc23)no1)c1ccccc1F` (stereo not drawn) [A24], for which the concentration for half-maximal inhibition (IC50) in assay [1] and in assay [2] was 0.5 to 1000 nM throughout.
As to `CCC(O)(c1cc(-c2c[nH]c3ncc(-c4cnn(C)c4)cc23)no1)c1ccccc1F` (stereo not drawn) [A25], the IC50 in assay [1] and in assay [2] was 0.5 to 1000 nM throughout.
Take `C=C(c1cc(-c2c[nH]c3ncc(-c4cnn(C)c4)cc23)n[nH]1)c1ccccc1F` [A28]: the half-maximal inhibitory concentration (IC50) lay within 0.5 to 1000 nM in assay [1] and 1000 to 10000 nM in assay [2].
As to `Cn1cc(-c2cnc3[nH]cc(-c4nnc(C(O)c5ccccc5)o4)c3c2)cn1` (stereo not drawn) [A29], the concentration for half-maximal inhibition (IC50) in assay [1] fell in the range of 0.5 to 1000 nM; in assay [2] it was 1000 to 10000 nM.
On the same counts, the results for `Cn1cc(-c2cnc3[nH]cc(-c4noc(C(C)(O)c5ccccc5)n4)c3c2)cn1` (stereo not drawn) [A31] are 0.5 to 1000 nM and 0.5 to 1000 nM.
As to `Cn1cc(-c2cnc3[nH]cc(-c4cc(C(C)(O)c5cccc(F)c5)on4)c3c2)cn1` (stereo not drawn) [A36], the IC50 in assay [1] and in assay [2] was 0.5 to 1000 nM each time.
With `Cn1cc(-c2cnc3[nH]cc(-c4cc(C(C)(O)c5cccc(F)c5)[nH]n4)c3c2)cn1` (stereo not drawn) [A37, 1-(3-fluorophenyl)-1-{5-[5-(1-methyl-1H-pyrazol-4-yl)-1H-pyrrolo[2,3-b]pyridin-3-yl]-2H-pyrazol-3-yl}ethanol], the IC50 in assay [1] and in assay [2] was 0.5 to 1000 nM in each case.
`Cn1cc(-c2cnc3[nH]cc(-c4n[nH]c(C(=O)c5ccccc5)n4)c3c2)cn1` [A39]: the IC50 in assay [1] and in assay [2] was 1000 to 10000 nM throughout.
For the molecule `Cn1cc(-c2cnc3[nH]cc(-c4n[nH]c(C(C)(O)c5ccccc5)n4)c3c2)cn1` (stereo not drawn) [A42, 1-{5-[5-(1-methyl-1H-pyrazol-4-yl)-1H-pyrrolo[2,3-b]pyridin-3-yl]-2H-1,2,4-triazol-3-yl}-1-phenylethanol], the IC50 in assay [1] fell in the range of 0.5 to 1000 nM; in assay [2], 1000 to 10000 nM.
On the same counts, the results for `Cn1cc(-c2cnc3[nH]cc(-c4nnc(C(O)c5ccccc5F)o4)c3c2)cn1` (stereo not drawn) [A43] are 0.5 to 1000 nM and 1000 to 10000 nM.
On the same counts, the results for `Cn1cc(-c2cnc3[nH]cc(-c4n[nH]c(C(C)(O)c5cccc(F)c5)n4)c3c2)cn1` (stereo not drawn) [A44] are 0.5 to 1000 nM and 1000 to 10000 nM.
On the same counts, the results for `Cn1cc(-c2cnc3[nH]cc(-c4nnc(C(C)(O)c5ccccc5)o4)c3c2)cn1` (stereo not drawn) [A45] are 0.5 to 1000 nM and 1000 to 10000 nM.
In the case of `Cn1cc(-c2cnc3[nH]cc(-c4nnc(C(O)c5cccc(F)c5F)o4)c3c2)cn1` (stereo not drawn) [A46], the IC50 in assay [1] and in assay [2] was 0.5 to 1000 nM in each case.
On to `Cn1cc(-c2cnc3[nH]cc(-c4nnc(C(O)c5cccc(F)c5)o4)c3c2)cn1` (stereo not drawn) [A47], for which the IC50 in assay [1] and in assay [2] was 0.5 to 1000 nM in each case.
Regarding `Cn1cc(-c2cnc3[nH]cc(-c4nnc(C(C)(O)c5ccccc5F)o4)c3c2)cn1` (stereo not drawn) [A48], the concentration for half-maximal inhibition (IC50) in assay [1] and in assay [2] was 0.5 to 1000 nM each time.

These data come from patent US20130245355A1, “3-HETARYL-SUBSTITUTED PYRROLO[2,3 B]PYRIDINE DERIVATIVES AS PDK1 INHIBITORS” (MERCK PATENT GMBH, priority 2010, published 2013).
